These results are taken from patent publication US5324648A, “Substituted isocoumarins as serine protease inhibitors and anti-inflammatory agents” (Georgia Tech Research Corporation, priority 1992, dated 1994).

Molecules are shown by their SMILES. Read-outs that look alike come from different tables or passages of the source. Bounds are passed on as bounds.

One experiment concerns the target T1, mouse granzyme A (Mus musculus, UniProt P11032).
T1 construct: mouse cytotoxic lymphocyte granzyme A; endogenous in cells; host or cells: mouse cytotoxic lymphocytes
T1 sequence (P11032 29-260): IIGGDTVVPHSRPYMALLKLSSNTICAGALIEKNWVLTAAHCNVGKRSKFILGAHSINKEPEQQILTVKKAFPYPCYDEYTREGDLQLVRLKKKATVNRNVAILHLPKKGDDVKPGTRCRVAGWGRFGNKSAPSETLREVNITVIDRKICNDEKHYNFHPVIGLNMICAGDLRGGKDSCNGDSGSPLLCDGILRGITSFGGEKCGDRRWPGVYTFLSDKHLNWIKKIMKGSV
The experiment can be described thus: Inactivation rate of mouse granzyme A. The note with it: Table VII; pH 7.5, 25° C; [I] 0.4 to 45 μM; read-out: kobs/[I]. In kind it is biochemical. Here is the method: (§1) Inactivation rates of serine proteases by substituted isocoumarins were measured by the incubation method. An aliquot of inhibitor (25 or 50 μl) in Me2 SO was added to a buffered enzyme solution (0.01-2.3 μM) to initiate the inactivation. Aliquots (50 μl) were withdrawn at various intervals and the residual enzymatic activity was measured. Me2 SO concentration in the reaction mixture was 8-12% (v/v). 0.1 Hepes, 0.01M CaCl2, pH 7.5 buffer was utilized for trypsin and coagulation enzymes. 0.1M Hepes, 0.5M NaCl, pH 7.5 was utilized for other serine proteases. The inhibitor concentrations are shown in all the tables. Peptide thioesters or peptide nitroanilides with appropriate sequence were used as substrates for various serine proteases. All peptide thioester hydrolysis rates were measured with assay mixtures containing 4,4'-dithiodipyridine (ε324 =19800M^-1 cm^-1; Grasetti & Murray, Arch. Biochem. Biophys. 119, pp 41-49 (1967)). Peptide 4-nitroanilide nitroanilide hydrolysis was measured at 410 nm (ε410 =8800M^-1 cm^-1; Erlanger et al., Arch. Biochem. Biophys. 95, pp 271-278 (1961)). First order inactivation rate constant (kobs) were obtained from plots of ln (vt /vo) vs time, and the correlation coefficients were greater than 0.98.
^a Inactivation rates were measured at 0.1M Hepes, 0.01M CaCl2,
pH 7.5, 8% Me2 SO and 25° C. by incubation method. ZArg-SBzl
(74-85 μM) was used as the substrate to monitor the residual enzymatic

For a further experiment, the target named is T2, Cl^- s (Homo sapiens, UniProt P09871).
T2 construct: Cl^- s^e
T2 sequence (P09871 438-688 limits assumed): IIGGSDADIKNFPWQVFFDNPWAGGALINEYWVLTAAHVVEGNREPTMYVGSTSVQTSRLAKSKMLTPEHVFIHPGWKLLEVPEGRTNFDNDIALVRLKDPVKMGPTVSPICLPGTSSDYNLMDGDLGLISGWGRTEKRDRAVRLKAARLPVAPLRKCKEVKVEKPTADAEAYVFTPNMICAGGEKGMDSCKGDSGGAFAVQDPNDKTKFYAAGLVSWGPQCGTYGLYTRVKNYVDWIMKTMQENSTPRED
T2 sequence (P09871 16-437 partner limits assumed): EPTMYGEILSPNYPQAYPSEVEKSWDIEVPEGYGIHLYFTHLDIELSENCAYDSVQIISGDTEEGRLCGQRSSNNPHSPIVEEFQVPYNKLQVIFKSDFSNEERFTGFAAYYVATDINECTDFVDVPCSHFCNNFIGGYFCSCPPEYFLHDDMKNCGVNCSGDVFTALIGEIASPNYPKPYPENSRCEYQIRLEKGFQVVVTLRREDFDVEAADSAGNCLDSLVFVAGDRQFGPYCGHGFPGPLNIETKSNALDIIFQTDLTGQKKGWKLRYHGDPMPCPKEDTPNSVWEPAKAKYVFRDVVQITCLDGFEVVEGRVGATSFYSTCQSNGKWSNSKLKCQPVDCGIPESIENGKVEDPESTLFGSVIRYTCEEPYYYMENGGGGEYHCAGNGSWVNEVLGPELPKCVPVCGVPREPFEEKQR
As to the kind of experiment: Inactivation rate of complement protein C1s. Particulars: Table II; pH 7.5, 25° C; [I] 0.8 to 44 μM; read-out: kobs/[I]. In kind it is biochemical. Here is the method:
as §1
^a Conditions were 0.1M Hepes, 0.5M NaCl, pH 7.5, 8-10% Me2 SO
and 25° C. Inactivation rates were measured by incubation method.
Enzyme concentrations were as follows: protein D, 1-9 μM; C2, 0.7-1
μM; B, 1.8 μM; Bb, 0.3-0.8 μM; Cl^- s, 0.07 μM; Cl^-

For experiment [1], the target named is sheep lung lymph tryptase. The experiment can be described thus: Inactivation rate of sheep lung lymph tryptase. In kind it is biochemical. Particulars: Table III; pH 7.5, 25° C; [I] 10 to 460 μM. Here is the method:
Inactivation rates of serine proteases by substituted isocoumarins were measured by the incubation method. An aliquot of inhibitor (25 or 50 μl) in Me2 SO was added to a buffered enzyme solution (0.01-2.3 μM) to initiate the inactivation. Aliquots (50 μl) were withdrawn at various intervals and the residual enzymatic activity was measured. […] 0.1 Hepes, 0.01M CaCl2, pH 7.5 buffer was utilized for trypsin and coagulation enzymes. […] The inhibitor concentrations are shown in all the tables. Peptide thioesters or peptide nitroanilides with appropriate sequence were used as substrates for various serine proteases.
^a Inactivation rates were measured at 0.1M Hepes, 0.5M NaCl, pH 7.5
buffer, 8% Me2 SO and 25° C.

The target of another experiment is chymotrypsin (Bos taurus, UniProt P00766). As to the kind of experiment: Inactivation of chymotrypsin. In kind it is biochemical, bovine. The note with it: pH 7.5, 25° C, read-out: kobs/[I].
The target of a further experiment is T3, bovine thrombin (Bos taurus, UniProt P00735).
T3 construct: bovine thrombin
As to the kind of experiment: Inactivation rate of bovine thrombin. In kind it is biochemical. Particulars: read-out: kobs/[I]. The method in brief:
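First-order kobs came from ln(vt/vo)-versus-time plots of remaining activity, measured on timed aliquots with thioester or nitroanilide substrates. Enzyme at 0.01-2.3 μM was preincubated with inhibitor at 25° C in pH 7.5 Hepes/0.01M CaCl2 buffer containing 8-12% Me2SO.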

The next experiment concerns the target T4, cathepsin G (Homo sapiens, UniProt P08311).
T4 construct: from tissue; host or cells: human leukocytes
T4 sequence (P08311 21-255): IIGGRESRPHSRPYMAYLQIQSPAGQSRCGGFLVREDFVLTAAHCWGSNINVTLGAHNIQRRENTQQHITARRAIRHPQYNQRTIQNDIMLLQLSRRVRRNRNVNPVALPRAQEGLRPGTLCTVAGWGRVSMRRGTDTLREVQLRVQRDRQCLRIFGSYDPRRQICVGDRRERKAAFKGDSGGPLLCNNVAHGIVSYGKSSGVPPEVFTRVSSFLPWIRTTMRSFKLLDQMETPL
The experiment can be described thus: Inactivation of cathepsin G. In kind it is biochemical. The note with it: for kinact/KI: pH 7.5, 25° C, read-out: kobs/[I].

Setting [2] is: Table I, pH 7.5, 25° C, [I] 0.3 to 400 μM.
Where [3] appears, read: pH 7.5, Table I, same concentration of enzyme and inhibitor.

`O=c1oc(Cl)c(Cl)c2ccccc12` [3,4-dichloroisocoumarin, reference compound]: the figures for the kinact/KI at mouse granzyme A and at Cl^- s were 50 M⁻¹ s⁻¹ and 170 M⁻¹ s⁻¹, respectively. In addition, the “kobs/[I]” value in experiment [1] was found to be 39 M⁻¹ s⁻¹.
As for `N=C(N)SCCOc1oc(=O)c2ccccc2c1Cl` [3-(2-isothiureidoethoxy)-4-chloroisocoumarin], the kinact/KI on chymotrypsin (Table IV, [I] 0.004 to 0.33 mM) stood at 1300 M⁻¹ s⁻¹; at bovine thrombin (setting [2]) it was 4700 M⁻¹ s⁻¹; on cathepsin G (Table IV, [I] 0.002 to 0.35 mM), 110 M⁻¹ s⁻¹. Besides, the “kobs/[I]” value in experiment [1] was 290 M⁻¹ s⁻¹.
With `NCCCOc1oc(=O)c2ccccc2c1Cl` [3-(3-aminopropoxy)-4-chloroisocoumarin], the kinact/KI on mouse granzyme A is 770 M⁻¹ s⁻¹; on chymotrypsin (Table IV, [I] 0.004 to 0.33 mM), 580 M⁻¹ s⁻¹; at bovine thrombin (setting [2]) it was 350 M⁻¹ s⁻¹; at cathepsin G (Table IV, [I] 0.002 to 0.35 mM), 260 M⁻¹ s⁻¹. Also, the “kobs/[I]” value in experiment [1] was found to be 18 M⁻¹ s⁻¹.
For the compound `N=C(N)SCCCOc1oc(=O)c2ccccc2c1Cl` [3-(3-isothiureidopropoxy)-4-chloroisocoumarin], the kinact/KI is 17500 M⁻¹ s⁻¹ on mouse granzyme A; 1700 M⁻¹ s⁻¹ at chymotrypsin (Table IV, [I] 0.004 to 0.33 mM); 1430 M⁻¹ s⁻¹ at bovine thrombin (setting [2]); 130000 M⁻¹ s⁻¹ at Cl^- s; 83 M⁻¹ s⁻¹ on cathepsin G (Table IV, [I] 0.002 to 0.35 mM). Moreover, the “kobs/[I]” value in experiment [1] was found to be 230 M⁻¹ s⁻¹.
Regarding `N=C(N)SCCCOc1oc(=O)c2cc(N)ccc2c1Cl` [7-amino-4-chloro-3-(3-isothiureidopropoxy)isocoumarin], the kinact/KI at mouse granzyme A worked out at 3000 M⁻¹ s⁻¹; on chymotrypsin (Table IV, [I] 0.004 to 0.33 mM) it was 1600 M⁻¹ s⁻¹; at bovine thrombin (setting [2]), 630 M⁻¹ s⁻¹; at Cl^- s, 23000 M⁻¹ s⁻¹; at cathepsin G (Table IV, [I] 0.002 to 0.35 mM) it was 36 M⁻¹ s⁻¹. Moreover, the “kobs/[I]” value in experiment [1] was found to be 710 M⁻¹ s⁻¹.
Regarding `CCOc1oc(=O)c2cc(NC(=N)N)ccc2c1Cl` [7-guanidino-3-ethoxy-4-chloroisocoumarin, 7-guanidino-4-chloro-3-ethoxyisocoumarin], the kinact/KI on mouse granzyme A was 26200 M⁻¹ s⁻¹; at chymotrypsin (Table IV, [I] 0.004 to 0.33 mM), 37000 M⁻¹ s⁻¹; at bovine thrombin (setting [3]) it was greater than 55000 M⁻¹ s⁻¹; on Cl^- s it was 690 M⁻¹ s⁻¹; at cathepsin G (Table IV, [I] 0.002 to 0.35 mM) it was 84000 M⁻¹ s⁻¹. Further, in experiment [1], the “kobs/[I]” value is recorded as 2,200 M^-1 s^-1.
As a reminder, the inhibition is the share of the control response that was lost under treatment. A lower inhibition goes with a weak effect. Consider `COc1cc2ccc(NC(=N)N)cc2c(=O)o1` [7-guanidino-3-methoxyisocoumarin], for which the kinact/KI at chymotrypsin (Table IV, [I] 0.004 to 0.33 mM) was 270 M⁻¹ s⁻¹; at bovine thrombin (setting [2]), 4900 M⁻¹ s⁻¹. At cathepsin G (Table IV, not time dependent, at 0.49 mM), this compound registered an inhibition at 490 µM of 81%. For the same compound, in experiment [1], the “kobs/[I]” value amounted to 53 M⁻¹ s⁻¹.
With `N=C(N)Nc1ccc2c(Cl)c(OCCc3ccccc3)oc(=O)c2c1` [7-guanidino-4-chloro-3-(2-phenylethoxy)isocoumarin], the kinact/KI on mouse granzyme A was 6400 M⁻¹ s⁻¹; at chymotrypsin (Table IV, [I] 0.004 to 0.33 mM) it was 38000 M⁻¹ s⁻¹; at bovine thrombin (setting [3]), greater than 30000 M⁻¹ s⁻¹; on Cl^- s, 90 M⁻¹ s⁻¹; at cathepsin G (Table IV, [I] 0.002 to 0.35 mM) it was 66000 M⁻¹ s⁻¹. Moreover, the “kobs/[I]” value in experiment [1] is reported as 3,900 M^-1 s^-1.
On to `COc1oc(=O)c2cc(NC(=N)N)ccc2c1Cl` [7-guanidino-4-chloro-3-methoxyisocoumarin], for which the kinact/KI at mouse granzyme A turned out to be 15000 M⁻¹ s⁻¹; on chymotrypsin (Table IV, [I] 0.004 to 0.33 mM), 7200 M⁻¹ s⁻¹; at bovine thrombin (pH 7.5, Table I, progress curve method), 290000 M⁻¹ s⁻¹; on Cl^- s, 660 M⁻¹ s⁻¹; on cathepsin G (Table IV, [I] 0.002 to 0.35 mM), 11000 M⁻¹ s⁻¹. Also, the “kobs/[I]” value in experiment [1] is 620 M⁻¹ s⁻¹.
Turning to `N=C(N)SCCOc1oc(=O)c2cc(NC(=O)Nc3ccccc3)ccc2c1Cl` [PhNHCONH-CiTEtOIC, 7-(phenylcarbamoylamino)-4-chloro-3-(2-isothiureidoethoxy)isocoumarin], the kinact/KI on chymotrypsin (Table X, [I] 0.9-43 μM) amounted to 16000 M⁻¹ s⁻¹; at bovine thrombin (Table VIII, pH 7.5, 25° C, [I] 1.2-54 μM), 25000 M⁻¹ s⁻¹; at cathepsin G (Table X, [I] 33-46 μM) it was 100 M⁻¹ s⁻¹.
